Test results published in patent publication US20210353683A1, “ADDITIVE FOR MEDIUM FOR PROMOTING PRODUCTION OF PARACRINE FACTOR” (NISSAN CHEMICAL CORPORATION, priority 2018, published 2021).

What was measured:
Assay type in all cases: cell-based
[1] = system: Human bone marrow-derived mesenchymal stem cells (hMSC); experiment: Paracrine factor release amount test 3: VEGF in culture supernatant by ELISA; settings: 5 μM for 48 hr, then 48 hr in compound-free medium, relative to 2D DMSO control
Method: (§1) Human bone marrow-derived mesenchymal stem cells (hMSC, manufactured by PromoCell) were precultured by a single layer culture method (2D) using Mesenchymal Stem Cell Growth Medium 2 (manufactured by PromoCell). hMSCs were suspended in the same medium. In three-dimensional culture method (3D), hMSCs were seeded at 5×10^5 cells/2 mL/well on a cell-non-adhesive 6-well EZSPHERE plate (manufactured by AGC TECHNO GLASS, #4810-900) having a depression on the bottom surface. In 2D, hMSCs were seeded on a 6-well flat bottom plate (manufactured by Corning Incorporated, #3516) at 5×10^5 cells/2 mL/well. Continuously, compounds k-1:B-1, k-1:D-1, k-1:J-1 dissolved in DMSO were added at 2 μL/well to a final concentration of 5 μM, and the mixture was cultured in an incubator at 37° C., 5% CO2 for 48 hr. As a control, DMSO was added at a final concentration of 0.05%. After 48 hr, the medium was exchanged with a medium not containing the compound, and the cells were cultured in an incubator at 37° C., 5% CO2. After 48 hr, the culture supernatant was recovered. The number of cells at the time of recovery of the culture supernatant was measured by dispersing the cells in single cells using Detach Kit (manufactured by PromoCell), suspending a part thereof in Trypan Blue (manufactured by Wako Pure Chemical Industries, Ltd.) and counting the number of viable cells using TC-20 (manufactured by BIO-RAD).
Vascular endothelial growth factor (VEGF), a cytokine which is one kind of paracrine factor contained in the culture supernatant, was quantified using a plate reader. For the quantification, Human VEGF ELISA Kit (manufactured by Abcam, #ab100662) was used.
The concentration of VEGF in the culture supernatant was normalized by the cell count, and the relative values for the control group cultured in 2D are shown in Table 7. As a result, the secretion amount increased in both 2D culture and 3D culture by adding compounds k-1:B-1, k-1:D-1, and compound k-1:J-1. Therefrom it was clarified that the secretion of the paracrine factor can be promoted by adding the compounds k-1:B-1, k-1:D-1, and compound k-1:J-1 to the mesenchymal stem cells.

[2] = system: Human bone marrow-derived mesenchymal stem cells (hMSC); experiment: Paracrine factor release amount test 1: Angiogenin (ANG) in culture supernatant by ELISA; settings: 5 μM for 48 hr, then 48 hr in compound-free medium, relative to 2D DMSO control
Method: as §1, with “cells/2” for “cells/2 mL/well.”
Angiogenin (ANG), a cytokine which is one kind of paracrine factor contained in the culture supernatant, was quantified using a plate reader. For the quantification, Human Angiogenin ELISA Kit (manufactured by Abcam, #ab99970) was used.
The concentration of ANG in the culture supernatant was normalized by the cell count, and the relative values for the control group cultured in 2D are shown in Table 4. As a result, the secretion amount increased in both 2D culture and 3D culture by adding compounds k-1:B-1, k-1:D-1, and compound k-1:J-1. Therefrom it was clarified that the secretion of the paracrine factor can be promoted by adding the compounds k-1:B-1, k-1:D-1, and compound k-1:J-1 to the mesenchymal stem cells.

[3] = system: Human bone marrow-derived mesenchymal stem cells (hMSC); experiment: Paracrine factor release amount test 2: Stanniocalcin-1 (STC-1) in culture supernatant by ELISA; settings: 5 μM for 48 hr, then 48 hr in compound-free medium, relative to 2D DMSO control
Method: as §1, with “Continuously, compound k-1:B-1” for “Continuously, compounds k-1:B-1, k-1:D-1, k-1:J-1”, “DMSO was” for “DMSO were”, “hr. […]” for “hr. As a control, DMSO was added at a final concentration of 0.05%. After 48 hr, the medium was exchanged with a medium not containing the compound, and the cells were cultured in an incubator at 37° C., 5% CO2. After 48 hr, the culture supernatant was recovered.”
Stanniocalcin-1 (STC-1), a cytokine which is one kind of paracrine factor contained in the culture supernatant, was quantified using a plate reader. For the quantification, Human Stanniocalcin ELISA Kit (manufactured by Abcam, #ab213829) was used. […]

[4] = system: Human bone marrow-derived mesenchymal stem cells (hMSC); experiment: Paracrine factor release under inflammation stimulation (TNFα): MCP-1 in culture supernatant by flow cytometer; settings: 5 μM for 48 hr, then 48 hr with 10 ng/mL TNFα only, relative to 2D DMSO control
Method: as §1, with “Continuously, compounds k-1:B-1, k-1:D-1, k-1:J-1 dissolved in DMSO were added at 2 μL/well to a final concentration of 5 μM, and the mixture was cultured in an incubator at 37° C., 5% CO2 for 48 hr. As a control, DMSO was added at a final concentration of 0.05%. After 48 hr, the medium was exchanged with a medium not containing the compound, and the cells were cultured in an incubator at 37° C., 5% CO2. After 48 hr, the culture supernatant was recovered.” left out
Monocyte Chemotactic Protein-1 (MCP-1), a cytokine which is one kind of paracrine factor contained in the culture supernatant, was quantified using a flow cytometer. The quantification analysis was performed using BD™ CBA Flex Set (manufactured by BD 558287) according to the protocol of BD. […]

[5] = system: Human bone marrow-derived mesenchymal stem cells (hMSC); experiment: Paracrine factor release under inflammation stimulation (TNFα): TSG-6 in culture supernatant by ELISA; settings: 5 μM for 48 hr, then 48 hr with 10 ng/mL TNFα only, relative to 2D DMSO control
Method: as §1, with “Continuously, compound” for “Continuously, compounds k-1:B-1, k-1:D-1,”, “DMSO was” for “DMSO were”, “0.05%. […]” for “0.05%. After 48 hr, the medium was exchanged with a medium not containing the compound, and the cells were cultured in an incubator at 37° C., 5% CO2. After 48 hr, the culture supernatant was recovered.”
Tumor necrosis factor-inducible gene 6 protein (TSG-6), a cytokine which is one kind of paracrine factor contained in the culture supernatant, was quantified using a plate reader. […]

Row | SMILES | VEGF, relative value of secretion amount (pg) per 10000 cells ([1]; 2D culture) | VEGF, relative value of secretion amount (pg) per 10000 cells ([1]; 3D culture) | ANG, relative value of secretion amount (pg) per 10000 cells ([2]; 2D culture) | ANG, relative value of secretion amount (pg) per 10000 cells ([2]; 3D culture) | STC-1, relative value of secretion amount (pg) per 10000 cells ([3]; 2D culture) | STC-1, relative value of secretion amount (pg) per 10000 cells ([3]; 3D culture) | MCP-1, relative value of secretion amount (pg) per 10000 cells ([4]; 2D culture) | MCP-1, relative value of secretion amount (pg) per 10000 cells ([4]; 3D culture) | TSG-6, relative value of secretion amount (pg) per 10000 cells ([5]; 2D culture) | TSG-6, relative value of secretion amount (pg) per 10000 cells ([5]; 3D culture)
1 | CCC(=NNC(=O)C(C)Nc1ccccc1)c1ccc(O)c(C)c1O (racemic) [k-1:B-1] | 4.40 | 3.59 | 1.34 | 1.38 | 2.67 | 8.95 | – | – | – | –
2 | CCC(=NNC(=O)CNc1cccc(O)c1)c1ccc(O)c(C)c1O [k-1:D-1] | – | 3.27 | – | 1.50 | – | – | – | – | – | –
3 | CCC(=NNC(=O)NCc1cccc(O)c1)c1ccc(O)c(C)c1O [k-1:J-1] | – | 6.18 | – | 1.38 | – | – | 0.85 | 1.41 | 1.56 | 3.21
